Test results reported in ChEMBL document CHEMBL1201862, “PubChem BioAssay data set” (2004).
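Following 48 hours of exposure in 96-well plates, responses at five concentrations were used to interpolate endpoints linearly. GI50 marks 50% less growth.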 Calls of active or inactive are those of the source. No stated cut-off is given here; in the data, active = GI50 up to about 1.1 µM and inactive = higher.

Legend:
Assay in all cases: growth of human tumour cells (NCI), 48 h
HT-29 = system: HT-29
SNB-19 = system: SNB-19
SF-539 = system: SF-539
Hs-578T = system: Hs-578T
SN12C = system: SN12C
SK-MEL-28 = system: SK-MEL-28
LOX IMVI = system: LOX IMVI
NCI-H522 = system: NCI-H522
K562 = system: K562
HOP-62 = system: HOP-62
SF-295 = system: SF-295
NCI-H23 = system: NCI-H23
UACC-62 = system: UACC-62
PC-3 = system: PC-3
SK-MEL-2 = system: SK-MEL-2
NCI/ADR-RES = system: NCI/ADR-RES
COLO 205 = system: COLO 205
TK-10 = system: TK-10
HOP-92 = system: HOP-92
SR = system: SR

Measured: GI50

CCOP(C)(=O)/C(Cc1ccc(OC)c(OC)c1)=N\O (stereo not given)
inactive: HT-29 > 100 µM | SNB-19 > 100 µM | SF-539 > 100 µM | Hs-578T > 100 µM | SN12C > 100 µM | SK-MEL-28 > 100 µM | LOX IMVI > 100 µM | NCI-H522 > 100 µM | K562 > 100 µM | HOP-62 > 100 µM | SF-295 > 100 µM | NCI-H23 > 100 µM | UACC-62 > 100 µM | PC-3 > 100 µM | SK-MEL-2 > 100 µM | NCI/ADR-RES > 100 µM | COLO 205 > 100 µM | TK-10 > 100 µM | HOP-92 > 100 µM | SR > 100 µM

COC(=O)[C@@]1(Cc2ccc(O)cc2)C[C@@H]2Cc3ccccc3N2N1
inactive: HT-29 35.5 µM | SNB-19 > 100 µM | SF-539 > 100 µM | Hs-578T 68.4 µM | SN12C 71 µM | SK-MEL-28 > 100 µM | LOX IMVI > 100 µM | NCI-H522 58.2 µM | HOP-62 > 100 µM | SF-295 49.1 µM | NCI-H23 56.9 µM | UACC-62 70.8 µM | PC-3 34.5 µM | SK-MEL-2 25.4 µM | NCI/ADR-RES 31.8 µM | COLO 205 79.1 µM | TK-10 > 100 µM | HOP-92 43.6 µM | SR 31.3 µM

NC1=Nc2cc(C(F)(F)F)ccc2Sc2nc3ccccc3n21
inactive: HT-29 12.6 µM | SNB-19 15.6 µM | SF-539 > 46.5 µM | Hs-578T 42.1 µM | SN12C 57.5 µM | SK-MEL-28 > 100 µM | LOX IMVI 4.85 µM | NCI-H522 10.4 µM | K562 5.75 µM | HOP-62 > 60 µM | SF-295 > 57.9 µM | NCI-H23 31.3 µM | UACC-62 57.4 µM | PC-3 10.3 µM | SK-MEL-2 55.8 µM | NCI/ADR-RES > 100 µM | COLO 205 > 21.2 µM | TK-10 > 67 µM | HOP-92 7.6 µM | SR 3.61 µM

Cc1nc2ccccc2c(=O)n1/N=C/c1ccc(N(C)C)cc1
inactive: HT-29 > 100 µM | SNB-19 24.8 µM | SF-539 > 100 µM | Hs-578T 15.3 µM | SN12C > 100 µM | SK-MEL-28 > 100 µM | LOX IMVI > 100 µM | NCI-H522 15.6 µM | HOP-62 34.2 µM | SF-295 43.6 µM | NCI-H23 78 µM | UACC-62 71.8 µM | PC-3 > 100 µM | SK-MEL-2 > 100 µM | NCI/ADR-RES 86.9 µM | COLO 205 > 100 µM | TK-10 > 100 µM | HOP-92 48.5 µM | SR > 100 µM

O=C(O)CSc1nnc(CCCCCCCCc2nnc(SCC(=O)O)o2)o1
inactive: HT-29 > 100 µM | SNB-19 > 100 µM | Hs-578T 82.2 µM | SN12C > 100 µM | SK-MEL-28 > 100 µM | LOX IMVI > 100 µM | NCI-H522 > 100 µM | K562 > 100 µM | HOP-62 > 100 µM | SF-295 > 100 µM | NCI-H23 > 100 µM | UACC-62 > 100 µM | PC-3 > 100 µM | SK-MEL-2 > 100 µM | NCI/ADR-RES > 100 µM | COLO 205 > 100 µM | TK-10 > 100 µM | HOP-92 79.8 µM | SR > 100 µM

O=C(OCc1ccccc1)N1CCCc2c(n(S(=O)(=O)c3ccccc3)c3ccccc23)C1
inactive: HT-29 > 100 µM | SNB-19 > 100 µM | SF-539 > 100 µM | Hs-578T 78.7 µM | SN12C > 100 µM | SK-MEL-28 > 100 µM | LOX IMVI > 100 µM | NCI-H522 29.1 µM | K562 > 100 µM | HOP-62 > 100 µM | SF-295 36.6 µM | NCI-H23 > 100 µM | UACC-62 > 100 µM | PC-3 > 100 µM | SK-MEL-2 > 100 µM | NCI/ADR-RES > 100 µM | COLO 205 > 100 µM | TK-10 > 100 µM | HOP-92 > 100 µM | SR 49.1 µM

COc1ccc(/N=c2/oc3ccccc3cc2C(N)=O)cc1
inactive: HT-29 > 100 µM | SNB-19 1.91 µM | SF-539 23.1 µM | Hs-578T 18.7 µM | SN12C > 100 µM | SK-MEL-28 > 100 µM | LOX IMVI 33.7 µM | NCI-H522 13.4 µM | K562 > 100 µM | HOP-62 17.2 µM | SF-295 26.3 µM | NCI-H23 29.8 µM | UACC-62 34.8 µM | PC-3 80 µM | SK-MEL-2 55.2 µM | NCI/ADR-RES 39 µM | COLO 205 > 100 µM | TK-10 22.5 µM | HOP-92 27.8 µM | SR > 100 µM

CC(C)(C)N/N=C(/Cc1nc2c3c(ccc2nc1O)C(=O)c1ccccc1C3=O)C(=O)NC1=C(Cl)C(=O)c2ccccc2C1=O
inactive: HT-29 13.6 µM | SNB-19 72.8 µM | SF-539 21 µM | Hs-578T 24.7 µM | SN12C 17 µM | SK-MEL-28 > 100 µM | LOX IMVI 6.17 µM | NCI-H522 16.9 µM | K562 85.3 µM | SF-295 39.4 µM | NCI-H23 42.1 µM | UACC-62 21.2 µM | PC-3 7.71 µM | SK-MEL-2 12.4 µM | NCI/ADR-RES 5.77 µM | COLO 205 24 µM | HOP-92 31.6 µM | SR 27.7 µM

c1ccc2c(C3CCN(CCN4CCOCC4)C3)c[nH]c2c1 (stereo not given)
inactive: HT-29 > 100 µM | SNB-19 > 100 µM | Hs-578T > 100 µM | SN12C > 100 µM | SK-MEL-28 > 100 µM | LOX IMVI > 100 µM | NCI-H522 > 100 µM | K562 > 100 µM | HOP-62 > 100 µM | SF-295 > 100 µM | NCI-H23 > 100 µM | UACC-62 > 100 µM | PC-3 > 100 µM | SK-MEL-2 > 100 µM | NCI/ADR-RES > 100 µM | TK-10 > 100 µM | HOP-92 > 100 µM | SR > 100 µM

CCOP(=O)(O)CN1CCNCCN(CP(=O)(O)OCC)CCNCC1
inactive: HT-29 61.9 µM | SNB-19 > 100 µM | SF-539 > 100 µM | Hs-578T > 100 µM | SN12C > 100 µM | SK-MEL-28 > 100 µM | LOX IMVI > 100 µM | NCI-H522 > 100 µM | K562 > 100 µM | HOP-62 > 100 µM | SF-295 > 100 µM | UACC-62 > 100 µM | PC-3 > 100 µM | SK-MEL-2 > 100 µM | NCI/ADR-RES > 100 µM | COLO 205 91.4 µM | TK-10 > 100 µM | HOP-92 > 100 µM | SR > 10 µM

Cc1c(-c2ccccc2)[nH]n(C2=NCCN2)c1=O
inactive: HT-29 46.3 µM | SNB-19 > 100 µM | SF-539 > 100 µM | Hs-578T > 100 µM | LOX IMVI > 100 µM | NCI-H522 > 100 µM | K562 > 100 µM | HOP-62 > 100 µM | SF-295 > 100 µM | NCI-H23 > 100 µM | UACC-62 > 100 µM | PC-3 > 100 µM | SK-MEL-2 > 100 µM | NCI/ADR-RES > 100 µM | COLO 205 > 100 µM | TK-10 > 100 µM | HOP-92 > 100 µM | SR > 100 µM
